In publication PMC9867837 (Cancer letters, 2022):
Like-named read-outs stand apart in the source and are kept apart here.

Tests used:
[1] = Plasma stability, mouse; type: in vitro ADME
Method: (§1) Solubility, human (HLM) and mouse liver microsomal (MLM), and plasma stability studies were performed by Eurofins Cerep Panlabs and Eurofin Discovery Services (www.eurofins.com/PharmaDiscovery), while protein binding studies were performed by Sanford Burnham Prebys Chemical Biology & Drug Discovery Core using standard protocols.

[2] = biological target: T1, CYP2C9 (Homo sapiens, UniProt P11712); test: CYP inhibition, CYP2C9; type: in vitro ADME; details: read-out: CYP Inhibition CYP2C9 % Inh at 10 μM
T1 construct: Eurofins-CEREP (contract research organisation that ran the assay)
Method: (§2) The in vivo activity of a compound is influenced by its overall bioavailability, which is also driven by parameters, such as solubility, permeability, and metabolism. […] These values are all above the industry cut-off of 60 μg/ml. […] It has CLint in human hepatocytes of 16 μL/min/10^6 cells, which falls into moderate stability range [43].

[3] = biological target: T2, pYStat3C328A (Homo sapiens, UniProt P40763, C328A); test: EMSA with purified mutant pYStat3C328A; type: biochemical; details: 3 μM H182, 30 min
T2 construct: made in house; host or cells: E. coli BL21(DE3) TKB1 (inducible tyrosine kinase)
From the text: (§3) This construct was used to generate the mutants, Stat3C328A, Stat3C426A, Stat3C468A, and Stat3C542S, as described in detail in Supplementary Information “Methods”.
(§4) The expression of un-phosphorylated and tyrosine phosphorylated His-tagged recombinant wtStat3 and mutant Stat3 proteins in BL21 (DE3) bacterial cells is described in detail in Supplementary Information “Methods”.
Given the MS data, we conducted site-directed mutagenesis analysis for the effects of Cys mutations (Cys-to-Ala or Cys-to-Ser mutations) on the inhibitory activities or potencies of the compounds. […]
(§5) In another case, the nuclear extract was pre-incubated with the radiolabeled probe for 30 min at 30 °C prior to incubation with increasing concentration of H182 at room temperature for 30 min and subjecting to EMSA analysis. Bands corresponding to Stats DNA- binding activities were scanned and quantified using ImageJ and plotted as a percentage of control (vehicle) against the concentration of the inhibitor, from which the IC50 values were derived . […]
(§6) These studies were performed as previously reported using the v-Src -transformed NIH3T3/v-Src fibroblasts [1 -5] . […] Luciferase activity was normalized to total protein concentration of cell lysate, which was determined by Bradford assay (Bio-Rad, Hercules, CA) . […]

[4] = biological target: T3, pYStat3C426A (Homo sapiens, UniProt P40763, C426A); test: EMSA with purified mutant pYStat3C426A; type: biochemical
T3 construct: made in house; host or cells: E. coli BL21(DE3) TKB1 (inducible tyrosine kinase)
From the text: as §3, §4
Given the MS data, we conducted site-directed mutagenesis analysis for the effects of Cys mutations (Cys-to-Ala or Cys-to-Ser mutations) on the inhibitory activities or potencies of the compounds. […] Purified, phosphorylated wild-type (wt)Stat3, and phosphorylated mutants, Stat3C328A, Stat3C426A, Stat3C468A, and Stat3C542S protein samples of equal amounts were pre-incubated with or without 3 μM H182 for 30 min at room temperature prior to incubation with the radiolabeled hSIE probe that binds Stat3 and subjecting to EMSA analysis. […] Focusing on the C426 and C468, we next conducted dose-response studies for effects of H182 on Stat3C426A and Stat3C468A. […] Equal proteins used in the DNA-binding assay/EMSA analysis are shown by SDS-PAGE Coomassie staining (Fig. 3B, lower). […]
as §5, §6

[5] = biological target: T4, norepinephrine transporter (NET) (Homo sapiens, UniProt P23975); test: CEREP SafetyScreen44, norepinephrine transporter; type: binding
T4 construct: Eurofins-CEREP (SafetyScreen44 panel)

[6] = biological target: CYP3A (Homo sapiens, UniProt P08684); test: CYP inhibition, CYP3A; type: in vitro ADME
Method: as §2

[7] = Plasma stability, human; type: in vitro ADME
Method: as §1

T3 sequence (P40763 127-711 C426A): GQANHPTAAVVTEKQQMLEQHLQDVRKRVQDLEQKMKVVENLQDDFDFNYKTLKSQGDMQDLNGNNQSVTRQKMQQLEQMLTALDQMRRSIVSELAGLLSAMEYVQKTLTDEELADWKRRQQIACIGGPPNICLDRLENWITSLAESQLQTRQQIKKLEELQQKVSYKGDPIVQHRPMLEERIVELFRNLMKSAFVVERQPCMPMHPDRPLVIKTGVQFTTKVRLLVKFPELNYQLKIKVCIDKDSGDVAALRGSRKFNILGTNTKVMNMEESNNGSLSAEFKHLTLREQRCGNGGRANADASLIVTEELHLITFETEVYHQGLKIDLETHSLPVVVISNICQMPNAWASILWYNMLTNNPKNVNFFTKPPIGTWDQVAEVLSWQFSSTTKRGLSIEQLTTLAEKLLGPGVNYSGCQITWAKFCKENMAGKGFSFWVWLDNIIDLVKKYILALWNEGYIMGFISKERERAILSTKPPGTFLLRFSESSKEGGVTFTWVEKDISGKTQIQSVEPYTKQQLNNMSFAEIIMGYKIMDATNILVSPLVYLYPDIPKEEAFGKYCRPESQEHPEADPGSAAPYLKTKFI
CYP3A, sequence (P08684 2-503): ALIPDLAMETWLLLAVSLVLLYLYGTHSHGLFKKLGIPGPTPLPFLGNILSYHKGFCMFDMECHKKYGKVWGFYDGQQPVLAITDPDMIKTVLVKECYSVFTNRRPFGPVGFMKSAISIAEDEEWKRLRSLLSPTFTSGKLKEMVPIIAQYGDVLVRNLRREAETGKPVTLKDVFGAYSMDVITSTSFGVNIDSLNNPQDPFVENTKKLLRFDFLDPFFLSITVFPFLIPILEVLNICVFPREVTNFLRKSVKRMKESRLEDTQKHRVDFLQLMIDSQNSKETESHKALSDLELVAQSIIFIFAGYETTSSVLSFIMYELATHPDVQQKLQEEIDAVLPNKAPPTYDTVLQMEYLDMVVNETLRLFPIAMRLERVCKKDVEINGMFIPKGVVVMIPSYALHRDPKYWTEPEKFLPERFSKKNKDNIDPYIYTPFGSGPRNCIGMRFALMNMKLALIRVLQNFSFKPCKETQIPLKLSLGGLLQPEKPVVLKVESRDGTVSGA
T4 sequence (P23975 whole entry): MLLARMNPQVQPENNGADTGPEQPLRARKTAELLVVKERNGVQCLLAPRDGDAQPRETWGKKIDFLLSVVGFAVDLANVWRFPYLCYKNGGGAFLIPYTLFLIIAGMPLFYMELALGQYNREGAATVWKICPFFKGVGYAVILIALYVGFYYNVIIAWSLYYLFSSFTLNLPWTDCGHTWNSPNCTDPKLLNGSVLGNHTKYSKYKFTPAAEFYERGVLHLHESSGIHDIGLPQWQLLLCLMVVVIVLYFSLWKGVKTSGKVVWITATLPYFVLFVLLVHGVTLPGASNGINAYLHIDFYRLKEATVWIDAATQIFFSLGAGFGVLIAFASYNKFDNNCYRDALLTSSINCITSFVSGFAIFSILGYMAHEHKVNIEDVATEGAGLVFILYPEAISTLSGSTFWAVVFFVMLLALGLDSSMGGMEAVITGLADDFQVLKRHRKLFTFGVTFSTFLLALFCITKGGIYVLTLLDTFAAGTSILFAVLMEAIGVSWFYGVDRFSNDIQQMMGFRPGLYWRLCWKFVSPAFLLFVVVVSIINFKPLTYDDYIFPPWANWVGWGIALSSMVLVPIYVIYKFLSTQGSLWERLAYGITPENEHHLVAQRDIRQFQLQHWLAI
T2 sequence (P40763 127-711 C328A): as the sequence (P40763 127-711 C426A) above, with C202A, A300C counted along it
T1 sequence (P11712 whole entry, species assumed): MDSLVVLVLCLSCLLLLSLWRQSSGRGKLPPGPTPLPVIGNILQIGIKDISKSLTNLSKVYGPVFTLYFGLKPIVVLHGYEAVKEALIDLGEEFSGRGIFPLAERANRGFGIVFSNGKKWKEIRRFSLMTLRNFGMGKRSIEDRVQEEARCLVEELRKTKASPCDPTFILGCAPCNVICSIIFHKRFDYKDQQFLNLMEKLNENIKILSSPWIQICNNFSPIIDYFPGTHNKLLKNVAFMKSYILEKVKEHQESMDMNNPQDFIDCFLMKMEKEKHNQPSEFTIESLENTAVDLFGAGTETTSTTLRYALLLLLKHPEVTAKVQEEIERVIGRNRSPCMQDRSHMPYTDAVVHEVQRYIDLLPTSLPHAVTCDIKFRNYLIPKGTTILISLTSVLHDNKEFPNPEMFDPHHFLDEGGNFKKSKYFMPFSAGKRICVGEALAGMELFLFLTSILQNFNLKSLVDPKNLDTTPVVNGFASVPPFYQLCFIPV

O=C([C@H]1CCN1S(=O)(=O)c1c(F)c(F)c(F)c(F)c1F)N(Cc1ccc(C2CCCCC2)cn1)c1ccc2c(=O)[nH]ncc2c1 [Compound H182]
remaining at 1 h ([1]; 1 h): 69% | remaining at 2 h ([1]; 2 h): 23% | inhibition at 10 µM [2]: 33% | Effect on DNA-binding activity of pYStat3C328A [3]: strong inhibition | Effect on DNA-binding activity of pYStat3C426A ([4]; 3 μM H182, 30 min): unaffected | Effect on pYStat3C426A activity ([4]; 10 μM H182): near complete inhibition | IC50 ([4]; EMSA, 0–50 μM H182, 30 min): 6 µM | inhibition at 10 µM ([5]; 10 μM H182): > 80% | IC50 ([5]; SafetyScreen44 follow-up dose-response): 400 nM | IC50 ([6]; probe midazolam, midazolam site, read-out: CYP Inhibition CYP3A (Midazolam) IC50): 6.9 µM | IC50 ([6]; probe testosterone, testosterone site, read-out: CYP Inhibition CYP3A (Testosterone) IC50): 1.2 µM | remaining at 1 h ([7]; 1 h): 53% | remaining at 2 h ([7]; 2 h): 10%
